Laboratory results as given in US20080194620A1, “Use of Benzodiazepine Receptor Ligands For Combating Signs of Ageing” (L'OREAL, priority 2004, published 2008).

Tests used:
Assay type in all cases: cell-based
[1] = tested on: Normal human epidermal keratinocytes; assay: Cellular viability of keratinocytes in the TGK1 differentiation cultures; conditions: 10^−6 M; medium with calcium (1.5 mM); 96 h culture; control = 100%
Method: (§1) Normal human epidermal keratinocytes are cultivated at 37° C. in keratinocyte-SFM medium (Gibco BRL 3701022) supplemented with EGF (epidermal growth factor) and pituitary extract, with or without calcium supplement (1.5 mM). After culture for 24 hours, the medium is replaced with medium containing the actives to be tested or reference substances. Culture is continued for 96 hours. The transglutaminase K1 (TGK1) activity is evaluated by radioassay, by measuring the covalent addition of tritiated putrescine to casein (acceptor protein) for 1 h 30 min at 37° C. The casein is precipitated with TCA (trichloroacetic acid) on a dry filter and then counted in liquid scintillation. The proteins in each sample are determined by means of a kit (BioRad 500-0116). Statistical analysis of the data is performed by analysis of variance (ANOVA) using Dunnett's multiple comparison test.
(§2) The molecule PK11195 (or 1-(2-chlorophenyl)-N-(1-methyl-propyl)-3-isoquinoline carboxamide), a specific inhibitor of the peripheral benzodiazepine receptor, was tested at respective concentrations of 10^−4 M and 10^−6 M. The active was added to the keratinocyte culture medium, containing calcium or not containing calcium. The effect of a medium alone containing 1.5 mM of calcium (pro-differentiation agent) was used as a positive control of differentiation. […]

[2] = tested on: Normal human epidermal keratinocytes; assay: Differentiation of keratinocytes: determination of transglutaminase K1 (TGK1) activity by radioassay
Method: as §1, §2

[3] = tested on: Normal human epidermal keratinocytes; assay: Synthesis of total epidermal glycosaminoglycans (incorporation of 3H-glucosamine); conditions: 1.5 mM, 72 h incubation
Method: Normal human epidermal keratinocytes are cultivated in SFM complete medium for 24 hours. The medium is then removed, and replaced with SFM medium without supplements containing the product PK11195 or the pharmacological reference. It is incubated for 72 h at 37° C. Tritiated glucosamine (D-[6-^3H]-glucosamine, Amersham TRK398 (1.3 Tbq/mmol, 35 Ci/mmol) is added for the last 24 hours of incubation. The glycosaminoglycans are extracted from the culture medium and from the deposited matrix, with a chaotropic buffer, then purified by ion-exchange chromatography. The radioactivity incorporated in the […] molecules (mostly GAGs) is counted by liquid scintillation. The results are expressed as percentage change in synthesis of the GAGs relative to the control.

Compound | Cellular viability [1] [%] | TGK1 activity ([2]; 10^−6 M, medium with calcium (1.5 mM), 96 h culture, control = 100%, *p<0.05) [%] | decrease in TGK1 activity ([2]; medium with retinol 10^−6 M (anti-differentiation reference)) [%] | Incorporation of 3H-glucosamine, CPM ([3]; control 10624 CPM) [CPM] | Incorporation of 3H-glucosamine, Percentage/control ([3]; p<0.01) [%]
CC1=C(/C=C/C(C)=C/C=C/C(C)=C/CO)C(C)(C)CCC1 [retinol] | 103 | 56 | −44 |  | 
[Ca+2].[Cl-].[Cl-] [CaCl2] |  |  |  | 16791 | 158
